Experimental data from the NIST ThermoML archive (doi:10.1007/s10765-011-1086-8).
Numbers after ± are expanded uncertainties.

What was measured:
[1] = relative permittivity at various frequencies (dimensionless); conditions: 303.15 K, 101 kPa, Liquid, Frequency=1 MHz
[2] = relative permittivity at various frequencies (dimensionless); xn = mol fraction of the nth substance listed; conditions: 303.15 K, 101 kPa, Liquid, Frequency=1 MHz, Parallel plate capacitor

## O [water]
[1]; Parallel plate capacitor
  relative permittivity: 76.53 ± 0.46

## NC=O [formamide]
[1]; Parallel plate capacitor
  relative permittivity: 106.14 ± 0.64

## CN(C)C=O [dimethylformamide] + NC=O
[2]; x2 = 0
  relative permittivity: 36.55 ± 0.22

## C1COCCO1 [1,4-dioxane]
[1]; Parallel plate capacitor
  relative permittivity: 2.26 ± 0.014

## NC=O [formamide] + NCCO
[2]; x1 = 0.144
  relative permittivity: 36.91 ± 0.22
[2]; x1 = 0.275
  relative permittivity: 44.61 ± 0.27
[2]; x1 = 0.394
  relative permittivity: 52.04 ± 0.31
[2]; x1 = 0.5
  relative permittivity: 59.52 ± 0.36
[2]; x1 = 0.503
  relative permittivity: 59.14 ± 0.35
[2]; x1 = 0.603
  relative permittivity: 66.34 ± 0.4
[2]; x1 = 0.695
  relative permittivity: 74.02 ± 0.44
[2]; x1 = 0.78
  relative permittivity: 81.77 ± 0.49
[2]; x1 = 0.859
  relative permittivity: 90.12 ± 0.54
[2]; x1 = 0.932
  relative permittivity: 97.77 ± 0.59
[2]; x1 = 1
  relative permittivity: 106.14 ± 0.64

## NC=O [formamide] + CN(C)C=O
[2]; x1 = 0.122
  relative permittivity: 40.58 ± 0.24
[2]; x1 = 0.23
  relative permittivity: 45 ± 0.27
[2]; x1 = 0.327
  relative permittivity: 49.26 ± 0.3
[2]; x1 = 0.414
  relative permittivity: 53.6 ± 0.32
[2]; x1 = 0.493
  relative permittivity: 58.17 ± 0.35
[2]; x1 = 0.5
  relative permittivity: 58.5 ± 0.35
[2]; x1 = 0.565
  relative permittivity: 63.22 ± 0.38
[2]; x1 = 0.63
  relative permittivity: 67.66 ± 0.41
[2]; x1 = 0.69
  relative permittivity: 72.58 ± 0.44
[2]; x1 = 0.745
  relative permittivity: 77.4 ± 0.46
[2]; x1 = 0.796
  relative permittivity: 82.52 ± 0.5
[2]; x1 = 0.843
  relative permittivity: 86.95 ± 0.52
[2]; x1 = 0.886
  relative permittivity: 91.84 ± 0.55
[2]; x1 = 0.927
  relative permittivity: 96.1 ± 0.58
[2]; x1 = 0.965
  relative permittivity: 101.77 ± 0.61
[2]; x1 = 1
  relative permittivity: 106.14 ± 0.64

## C[S+](C)[O-] [dimethyl sulfoxide]
[1]
  relative permittivity: 46.05 ± 0.28

## CN(C)C=O [dimethylformamide]
[1]; Parallel plate capacitor
  relative permittivity: 36.55 ± 0.22
